# Results reported in US20230085307A1, “PYRIDAZINONE COMPOUND AND HERBICIDE” (NISSAN CHEMICAL CORPORATION, priority 2019, published 2023).
# How the values were obtained:
# [1] = tested on: wild oat; assay: Test Example 5: herbicidal effect by foliage application, plastic box (Table 20, symbol I); assay type: in vivo, wild oat (Avena fatua); conditions: foliage application
# Summary of the method: (§1)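 Foliar spray test: emulsion formulation diluted in water to a set application rate, sprayed onto 14-day-old plants raised in diluvial soil at 25° C to 30° C under glass. Both herbicidal effect and crop effect rated visually three weeks later.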
# [2] = tested on: chickweed; assay: Test Example 5: herbicidal effect by foliage application, plastic box (Table 20, symbol P); assay type: in vivo, common chickweed (Stellaria media); conditions: foliage application
# Summary of the method: as §1
# [3] = tested on: wild oat; assay: Test Example 4: herbicidal effect by soil treatment (Table 19, symbol I); assay type: in vivo, wild oat (Avena fatua); conditions: amount of applied herbicide 320 g/ha
# Summary of the method: (§2)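 Herbicidal effect was rated 3 weeks after treatment, using the scoring criteria of an earlier test. The compound, formulated as an emulsion and diluted in water to a set herbicide amount, had been sprayed uniformly on soil over freshly sown seeds. Growth took place in a greenhouse at 25° C. to 30° C.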
# [4] = tested on: lambsquarters; assay: Test Example 5: herbicidal effect by foliage application, plastic box (Table 20, symbol O); assay type: in vivo, lambsquarters (Chenopodium album); conditions: foliage application
# Summary of the method: as §1
# [5] = tested on: rice flat sedge; assay: Test Example 3: herbicidal effect by foliage application, Wagner pot (Table 18, symbol E); assay type: in vivo, rice flat sedge (Cyperus iria)
# Summary of the method: (§3)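 Plants were sown in alluvial soil held under 0.1–0.5 cm standing water and grown 14 days in a greenhouse at 25–30 °C. An emulsifiable formulation, water-diluted to the set dose, was then sprayed onto the foliage, and effects were scored three weeks later using previously defined criteria.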
# [6] = tested on: persian speedwell; assay: Test Example 4: herbicidal effect by soil treatment (Table 19, symbol R); assay type: in vivo, Persian speedwell (Veronica persica); conditions: amount of applied herbicide 320 g/ha
# Summary of the method: as §2
# [7] = tested on: windgrass; assay: Test Example 4: herbicidal effect by soil treatment (Table 19, symbol L); assay type: in vivo, windgrass (Apera spica-venti); conditions: amount of applied herbicide 320 g/ha
# Summary of the method: as §2
# [8] = tested on: persian speedwell; assay: Test Example 5: herbicidal effect by foliage application, plastic box (Table 20, symbol R); assay type: in vivo, Persian speedwell (Veronica persica); conditions: foliage application
# Summary of the method: as §1
# [9] = tested on: blackgrass; assay: Test Example 5: herbicidal effect by foliage application, plastic box (Table 20, symbol J); assay type: in vivo, blackgrass (Alopecurus myosuroides); conditions: foliage application
# Summary of the method: as §1
# [10] = tested on: southern crabgrass; assay: Test Example 4: herbicidal effect by soil treatment (Table 19, symbol F); assay type: in vivo, southern crabgrass (Digitaria ciliaris); conditions: amount of applied herbicide 320 g/ha
# Summary of the method: as §2
# [11] = tested on: southern crabgrass; assay: Test Example 5: herbicidal effect by foliage application, plastic box (Table 20, symbol F); assay type: in vivo, southern crabgrass (Digitaria ciliaris); conditions: foliage application
# Summary of the method: as §1
# [12] = tested on: velvetleaf; assay: Test Example 4: herbicidal effect by soil treatment (Table 19, symbol M); assay type: in vivo, velvetleaf (Abutilon theophrasti); conditions: amount of applied herbicide 320 g/ha
# Summary of the method: as §2
# [13] = tested on: Italian ryegrass; assay: Test Example 4: herbicidal effect by soil treatment (Table 19, symbol K); assay type: in vivo, Italian ryegrass (Lolium multiflorum); conditions: amount of applied herbicide 320 g/ha
# Summary of the method: as §2
# [14] = tested on: velvetleaf; assay: Test Example 5: herbicidal effect by foliage application, plastic box (Table 20, symbol M); assay type: in vivo, velvetleaf (Abutilon theophrasti); conditions: foliage application
# Summary of the method: as §1
# [15] = tested on: redroot pigweed; assay: Test Example 5: herbicidal effect by foliage application, plastic box (Table 20, symbol N); assay type: in vivo, redroot pigweed (Amaranthus retroflexus); conditions: foliage application
# Summary of the method: as §1
# [16] = tested on: Chinese sprangletop; assay: Test Example 3: herbicidal effect by foliage application, Wagner pot (Table 18, symbol D); assay type: in vivo, chinese sprangletop (Leptochloa chinensis)
# Summary of the method: as §3
# [17] = tested on: barnyard grass; assay: Test Example 4: herbicidal effect by soil treatment (Table 19, symbol H); assay type: in vivo, barnyard grass (Echinochloa crus-galli); conditions: amount of applied herbicide 320 g/ha
# Summary of the method: as §2
# [18] = tested on: chickweed; assay: Test Example 4: herbicidal effect by soil treatment (Table 19, symbol P); assay type: in vivo, common chickweed (Stellaria media); conditions: amount of applied herbicide 320 g/ha
# Summary of the method: as §2
# [19] = tested on: barnyard grass; assay: Test Example 3: herbicidal effect by foliage application, Wagner pot (Table 18, symbol H); assay type: in vivo, barnyard grass (Echinochloa crus-galli)
# Summary of the method: as §3
# [20] = tested on: green foxtail; assay: Test Example 5: herbicidal effect by foliage application, plastic box (Table 20, symbol G); assay type: in vivo, green foxtail (Setaria viridis); conditions: foliage application
# Summary of the method: as §1
# [21] = tested on: lambsquarters; assay: Test Example 4: herbicidal effect by soil treatment (Table 19, symbol O); assay type: in vivo, lambsquarters (Chenopodium album); conditions: amount of applied herbicide 320 g/ha
# Summary of the method: as §2
# [22] = tested on: Italian ryegrass; assay: Test Example 5: herbicidal effect by foliage application, plastic box (Table 20, symbol K); assay type: in vivo, Italian ryegrass (Lolium multiflorum); conditions: foliage application
# Summary of the method: as §1
# [23] = tested on: barnyard grass; assay: Test Example 5: herbicidal effect by foliage application, plastic box (Table 20, symbol H); assay type: in vivo, barnyard grass (Echinochloa crus-galli); conditions: foliage application
# Summary of the method: as §1
# [24] = tested on: green foxtail; assay: Test Example 4: herbicidal effect by soil treatment (Table 19, symbol G); assay type: in vivo, green foxtail (Setaria viridis); conditions: amount of applied herbicide 320 g/ha
# Summary of the method: as §2
# [25] = tested on: redroot pigweed; assay: Test Example 4: herbicidal effect by soil treatment (Table 19, symbol N); assay type: in vivo, redroot pigweed (Amaranthus retroflexus); conditions: amount of applied herbicide 320 g/ha
# Summary of the method: as §2
# [26] = tested on: windgrass; assay: Test Example 5: herbicidal effect by foliage application, plastic box (Table 20, symbol L); assay type: in vivo, windgrass (Apera spica-venti); conditions: foliage application
# Summary of the method: as §1
# [27] = tested on: blackgrass; assay: Test Example 4: herbicidal effect by soil treatment (Table 19, symbol J); assay type: in vivo, blackgrass (Alopecurus myosuroides); conditions: amount of applied herbicide 320 g/ha
# Summary of the method: as §2
# [28] = AAH 320 g/ha, evaluated three weeks after application
# [29] = amount of applied herbicide 320 g/ha
# [30] = 320 g/ha, three weeks after application
structure (smiles),measurement,setting,value
C#CCOc1c(C)nn(C)c(=O)c1-c1c(-c2ccc(OC(F)F)cc2)sc2ccc(F)cc12 [2-301],"I: wild oat, herbicidal effect (criteria 0-5)",[1]; [28],0 (Herbicidal rate of 5% or less (almost no effect))
same,"P: chickweed, herbicidal effect (criteria 0-5)",[2]; [28],5 (Herbicidal rate of 90% or more (almost completely withered))
same,herbicidal effect on I: wild oat,[3],0 (Herbicidal rate of 5% or less (almost no effect))
same,"O: lambsquarters, herbicidal effect (criteria 0-5)",[4]; [28],5 (Herbicidal rate of 90% or more (almost completely withered))
same,herbicidal effect on E: rice flat sedge,[5]; [29],2 (Herbicidal rate of 20% or more and less than 40%)
same,herbicidal effect on R: persian speedwell,[6],3 (Herbicidal rate of 40% or more and less than 70%)
same,herbicidal effect on L: windgrass,[7],0 (Herbicidal rate of 5% or less (almost no effect))
same,"R: persian speedwell, herbicidal effect (criteria 0-5)",[8]; [28],5 (Herbicidal rate of 90% or more (almost completely withered))
same,"J: blackgrass, herbicidal effect (criteria 0-5)",[9]; [28],0 (Herbicidal rate of 5% or less (almost no effect))
same,herbicidal effect on F: southern crabgrass,[10],0 (Herbicidal rate of 5% or less (almost no effect))
same,"F: southern crabgrass, herbicidal effect (criteria 0-5)",[11]; [28],0 (Herbicidal rate of 5% or less (almost no effect))
same,herbicidal effect on M: velvetleaf,[12],0 (Herbicidal rate of 5% or less (almost no effect))
same,herbicidal effect on K: Italian ryegrass,[13],0 (Herbicidal rate of 5% or less (almost no effect))
same,"M: velvetleaf, herbicidal effect (criteria 0-5)",[14]; [28],5 (Herbicidal rate of 90% or more (almost completely withered))
same,"N: redroot pigweed, herbicidal effect (criteria 0-5)",[15]; [28],3 (Herbicidal rate of 40% or more and less than 70%)
same,herbicidal effect on D: Chinese sprangletop,[16]; [29],0 (Herbicidal rate of 5% or less (almost no effect))
same,herbicidal effect on H: barnyard grass,[17],0 (Herbicidal rate of 5% or less (almost no effect))
same,herbicidal effect on P: chickweed,[18],0 (Herbicidal rate of 5% or less (almost no effect))
same,herbicidal effect on H: barnyard grass,[19]; [29],3 (Herbicidal rate of 40% or more and less than 70%)
same,"G: green foxtail, herbicidal effect (criteria 0-5)",[20]; [28],0 (Herbicidal rate of 5% or less (almost no effect))
same,herbicidal effect on O: lambsquarters,[21],0 (Herbicidal rate of 5% or less (almost no effect))
same,"K: Italian ryegrass, herbicidal effect (criteria 0-5)",[22]; [28],0 (Herbicidal rate of 5% or less (almost no effect))
same,"H: barnyard grass, herbicidal effect (criteria 0-5)",[23]; [28],0 (Herbicidal rate of 5% or less (almost no effect))
same,herbicidal effect on G: green foxtail,[24],0 (Herbicidal rate of 5% or less (almost no effect))
same,herbicidal effect on N: redroot pigweed,[25],0 (Herbicidal rate of 5% or less (almost no effect))
same,"L: windgrass, herbicidal effect (criteria 0-5)",[26]; [28],0 (Herbicidal rate of 5% or less (almost no effect))
same,herbicidal effect on J: blackgrass,[27],0 (Herbicidal rate of 5% or less (almost no effect))
CCCC(=O)Oc1c(C)nn(C)c(=O)c1-c1c(-c2ccc(OCC)nc2)sc2ccccc12 [1-077],"herbicidal effect grade, I: wild oat",[1]; [30],1 (Herbicidal rate of 5% or more and less than 20%)
same,"herbicidal effect grade, P: chickweed",[2]; [30],3 (Herbicidal rate of 40% or more and less than 70%)
same,"herbicidal effect rating, I: wild oat",[3],0 (Herbicidal rate of 5% or less (almost no effect))
same,"herbicidal effect grade, O: lambsquarters",[4]; [30],0 (Herbicidal rate of 5% or less (almost no effect))
same,"herbicidal effect on E (rice flat sedge), rating 0-5",[5]; 320 g/ha,4 (Herbicidal rate of 70% or more and less than 90%)
same,"herbicidal effect rating, R: persian speedwell",[6],4 (Herbicidal rate of 70% or more and less than 90%)
same,"herbicidal effect rating, L: windgrass",[7],0 (Herbicidal rate of 5% or less (almost no effect))
same,"herbicidal effect grade, R: persian speedwell",[8]; [30],5 (Herbicidal rate of 90% or more (almost completely withered))
same,"herbicidal effect grade, J: blackgrass",[9]; [30],1 (Herbicidal rate of 5% or more and less than 20%)
same,"herbicidal effect rating, F: southern crabgrass",[10],0 (Herbicidal rate of 5% or less (almost no effect))
same,"herbicidal effect grade, F: southern crabgrass",[11]; [30],0 (Herbicidal rate of 5% or less (almost no effect))
same,"herbicidal effect rating, M: velvetleaf",[12],0 (Herbicidal rate of 5% or less (almost no effect))
same,"herbicidal effect rating, K: Italian ryegrass",[13],0 (Herbicidal rate of 5% or less (almost no effect))
same,"herbicidal effect grade, M: velvetleaf",[14]; [30],4 (Herbicidal rate of 70% or more and less than 90%)
same,"herbicidal effect grade, N: redroot pigweed",[15]; [30],0 (Herbicidal rate of 5% or less (almost no effect))
same,"herbicidal effect on D (Chinese sprangletop), rating 0-5",[16]; 320 g/ha,1 (Herbicidal rate of 5% or more and less than 20%)
same,"herbicidal effect rating, H: barnyard grass",[17],0 (Herbicidal rate of 5% or less (almost no effect))
same,"herbicidal effect rating, P: chickweed",[18],4 (Herbicidal rate of 70% or more and less than 90%)
same,"herbicidal effect on H (barnyard grass), rating 0-5",[19]; 320 g/ha,4 (Herbicidal rate of 70% or more and less than 90%)
same,"herbicidal effect grade, G: green foxtail",[20]; [30],1 (Herbicidal rate of 5% or more and less than 20%)
same,"herbicidal effect rating, O: lambsquarters",[21],0 (Herbicidal rate of 5% or less (almost no effect))
same,"herbicidal effect grade, K: Italian ryegrass",[22]; [30],1 (Herbicidal rate of 5% or more and less than 20%)
same,"herbicidal effect grade, H: barnyard grass",[23]; [30],2 (Herbicidal rate of 20% or more and less than 40%)
same,"herbicidal effect rating, G: green foxtail",[24],0 (Herbicidal rate of 5% or less (almost no effect))
same,"herbicidal effect rating, N: redroot pigweed",[25],0 (Herbicidal rate of 5% or less (almost no effect))
same,"herbicidal effect grade, L: windgrass",[26]; [30],0 (Herbicidal rate of 5% or less (almost no effect))
same,"herbicidal effect rating, J: blackgrass",[27],0 (Herbicidal rate of 5% or less (almost no effect))
